The subject of assay [1] is P. aeruginosa PAO1. The class given is cell-based, Pseudomonas aeruginosa. Conditions: for Yield: substrate as energy source; for Use as sole source of energy or nitrogen: MES 5.5 media; for Utilization as an energy source: pH 5.5. How it is done:
(§1) Media and growth conditions. LB, amended with antibiotics when appropriate, was used for growth and maintenance of all strains unless otherwise stated. For the 3OC12HSL-dependent enrichment of strain PAI-A and other growth experiments performed on this strain, modified “MES 5.5” defined-medium was used to enrich and study Variovorax paradoxus VAI-C (21). These modifications to the medium included buffering with 5 mM 3-(N-morpholino)-propanesulfonic acid (MOPS) at pH 7.2 and the addition of sodium sulfate (14 g·liter^−1) and magnesium chloride (4 g·liter^−1). For growth experiments with P. aeruginosa, “MES 5.5” defined medium was used as described previously (21) with the exception that it contained sodium sulfate, not sulfite, as S-source, a typographical error in the reported recipe. Unless otherwise noted, the medium was buffered to a pH of 5.5 with 5 mM 2-(N-morpholino)-ethanesulfonic acid (MES). Ammonium-free “MES 5.5” basal medium was used to examine the utilization of AHLs and HSL as potential nitrogen sources. 100 mM stock solutions of AHLs were prepared by dissolving AHLs in ethyl acetate that had been acidified with glacial acetic acid (0.01% v/v), and stocks were stored at −20° C. AHLs used in these studies were: N-3-oxododecanoyl-L-homoserine lactone (3OC12HSL; Quorum Sciences Inc., Iowa City Iowa), N-3-oxohexanoyl-L-homoserine lactone (3OC6HSL; Sigma), and from Fluka: N-3-butanoyl-DL-homoserine lactone (C4HSL), N-3-hexanoyl-DL-homoserine lactone (C6HSL), N-3-heptanoyl-DL-homoserine lactone (C7HSL), N-3-octanoyl-DL-homoserine lactone (C8HSL), N-3-[…], N-3-dodecanoyl-DL-homoserine lactone (C12HSL), N-3-tetradecanoyl-DL-homoserine lactone (C14HSL). For growth experiments, the AHL was dispensed into sterile tubes, the ethyl acetate was removed by evaporation under a stream of sterile air, and sterile medium was added to the dried AHL that remained. Stocks of L-HSL (Sigma) were prepared just prior to their use from well-desiccated reagent stored at −20° C. […] Cells were grown in 5 ml of medium in 18-mm tubes with shaking at 37° C. unless otherwise noted. AHL molecules are stable for approximately 30 days under the conditions of low pH in our defined medium (9, 34). Unless noted, all other reagents were of reagent grade.
(§2) Growth studies. Optical density measurements were performed at 600 nm using a Spectronic 20 spectrophotometer. […] When care was taken to vortex tubes gently, the changes in optical density reflecting growth could be monitored accurately. Molar growth yields were determined in the defined media containing the indicated substrate at a final concentration of 1 or 2 mM. For both Pseudomonas PAI-A and P. aeruginosa PAO1, factors for converting optical density to cell dry mass were determined by growing cells in media containing succinate as the energy source and NH4Cl as the nitrogen source, washing the cells with 50 mM ammonium acetate buffer (pH 5.5), and drying cell samples to a constant weight. Such determinations were made in quadruplicate.

In assay [2] the test system is Pseudomonas strain PAI-A. Type of assay: cell-based. The method, then: as §1, §2
In another assay the target is T1, PvdQ AHL acylase (Pseudomonas aeruginosa, UniProt Q9I194).
T1 construct: The deduced coding region for PvdQ (Gene PA2385; www.pseudomonas.com) was amplified from the genomic DNA; expressed in transfected cells; host or cells: E. coli BL21PRO carrying pPvdQ-PROTet (pPROTet.E133-derived, aTc-inducible)
T1 sequence (Q9I194 24-193): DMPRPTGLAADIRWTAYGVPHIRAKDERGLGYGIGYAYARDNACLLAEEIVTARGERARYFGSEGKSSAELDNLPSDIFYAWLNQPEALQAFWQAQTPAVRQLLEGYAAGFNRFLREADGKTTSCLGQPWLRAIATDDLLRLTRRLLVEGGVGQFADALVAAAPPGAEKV
T1 sequence (Q9I194 217-762): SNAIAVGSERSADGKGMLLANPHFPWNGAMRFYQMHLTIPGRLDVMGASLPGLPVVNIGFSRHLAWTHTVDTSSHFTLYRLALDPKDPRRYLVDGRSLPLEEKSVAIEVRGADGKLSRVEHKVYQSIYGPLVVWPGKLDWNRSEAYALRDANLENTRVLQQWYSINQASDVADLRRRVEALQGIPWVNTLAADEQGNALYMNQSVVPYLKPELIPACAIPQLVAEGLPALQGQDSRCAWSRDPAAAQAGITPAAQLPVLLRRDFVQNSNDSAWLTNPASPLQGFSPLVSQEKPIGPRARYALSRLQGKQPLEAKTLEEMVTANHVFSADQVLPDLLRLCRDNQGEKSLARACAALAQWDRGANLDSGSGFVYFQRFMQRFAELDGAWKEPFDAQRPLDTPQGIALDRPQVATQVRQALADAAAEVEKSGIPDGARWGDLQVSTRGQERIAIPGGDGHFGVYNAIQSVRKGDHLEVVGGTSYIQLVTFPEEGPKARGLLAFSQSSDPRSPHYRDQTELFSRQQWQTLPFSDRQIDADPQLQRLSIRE
Put plainly: AHL degradation by resting E. coli cells expressing recombinant PvdQ (LC/APCI-MS). The class given is cell-based, P. aeruginosa. Conditions: for HSL-releasing degradation by E. coli expressing recombinant PvdQ: resting cells OD600 1.2, MOPS pH 7.2, 18° C., 10 μM 3OC12HSL; for Product accumulation in PvdQ-expressing E. coli suspensions: incubated with 10 μM 3OC12HSL. From the text: (§3) Analysis of cell-free culture and reaction fluids. […] Dilutions were made using “MES 5.5” medium.
Cloning and expression of pvdQ (PA2385) encoding a putative P. aeruginosa AHL acylase. Genomic DNA was isolated from P. aeruginosa PAO1 using the DNeasy™ tissue kit (QIAGEN) and used as a template for PCR. The deduced coding region for PvdQ (Gene PA2385; www.pseudomonas.com) was amplified from the genomic DNA using the following primers: 5′-[…]-3′ (SEQ ID NO:6) and 5′-[…]-3′ (SEQ ID NO:7; bold print indicates HindIII and NotI restriction sites, respectively), cloned into the appropriately digested expression vector, pPROTet.E133 (Clontech), and transformed into E. coli BL21PRO. Recombinant AHL acylase activity was examined as follows. After growth in LB medium containing spectinomycin (50 μg ml^−1) and chloramphenicol (34 μg ml^−1), and after gene induction by the addition of anhydrotetracycline (aTc, 100 ng ml^−1) at 18° C., cells were pelleted and resuspended to a final optical density of 1.2 in MOPS buffered media (pH 7.2) containing 10 μM 3OC12HSL. Recombinant cells that had not been induced with aTc were used as a negative control. Reaction mixtures were incubated at 18° C.; 150 μl samples were removed at 0, 15, 30, and 60 min and analyzed for AHL disappearance and product appearance via LC/APCI-MS (see above).

The next assay concerns P. aeruginosa PA14. Put plainly: Growth of P. aeruginosa PA14 on 3OC12HSL as sole energy source. Type of assay: cell-based, Pseudomonas aeruginosa. To be noted: defined ammonia-replete media, pH 5.5 and 7.2, naive cells after lag. How it is done:
Media and growth conditions. LB, amended with antibiotics when appropriate, was used for growth and maintenance of all strains unless otherwise stated. For the 3OC12HSL-dependent enrichment of strain PAI-A and other growth experiments performed on this strain, modified “MES 5.5” defined-medium was used to enrich and study Variovorax paradoxus VAI-C (21). These modifications to the medium included buffering with 5 mM 3-(N-morpholino)-propanesulfonic acid (MOPS) at pH 7.2 and the addition of sodium sulfate (14 g·liter^−1) and magnesium chloride (4 g·liter^−1). For growth experiments with P. aeruginosa, “MES 5.5” defined medium was used as described previously (21) with the exception that it contained sodium sulfate, not sulfite, as S-source, a typographical error in the reported recipe. Unless otherwise noted, the medium was buffered to a pH of 5.5 with 5 mM 2-(N-morpholino)-ethanesulfonic acid (MES). Ammonium-free “MES 5.5” basal medium was used to examine the utilization of AHLs and HSL as potential nitrogen sources. 100 mM stock solutions of AHLs were prepared by dissolving AHLs in ethyl acetate that had been acidified with glacial acetic acid (0.01% v/v), and stocks were stored at −20° C. […]

Assay [3] has as its system Pseudomonas strain PAI-A. Nature of the assay: TLC of reaction fluids of dense PAI-A cell suspensions incubated with AHL. Type of assay: cell-based. Conditions: dense PAI-A cell suspension; 25 mM C12HSL.
Description: as §3

Assay [4] concerns P. aeruginosa PAO1. Conditions: dense PAO1 cell suspension; 25 mM C12HSL.
Description: Analysis of cell-free culture and reaction fluids. For the initial characterization of the intermediates in AHL degradation, a TLC method was used (16).
[5] abbreviates: P. aeruginosa PAO1, minimal salts media pH 5.5.
Where [6] appears, read: strain PAI-A, minimal salts media pH 7.2.

Results on 14 compounds are retold here after patent publication US7335352B1, “Method of identifying agents that inhibit quorum sensing activity of gamma-proteobacteria” (priority 2003, dated 2008).

“Also recorded” adds a separate entry of the source. Read-outs that look alike come from different tables or passages of the source.

Consider `CCCCCCCCCC(=O)NC1CCOC1=O` (racemic) [C10-DL-HSL, N-3-decanoyl-DL-homoserine lactone], for which, in the assay with P. aeruginosa PAO1 [1] (setting [5]), the Doubling time is reported as 14.0 ± 3.8 h and the Yield was found to be 97 ± 3 g/mol. In the assay with Pseudomonas strain PAI-A [2] (setting [6]), the “Yield (qualitative)” value was “+, ND^”. For the same compound, on PvdQ AHL acylase, the “HSL-releasing degradation by E. coli expressing recombinant PvdQ” value (“HSL-releasing degradation” below) was “catalyzed the HSL-releasing degradation”.

On to `CCCCCCCC(=O)NC1CCOC1=O` (racemic) [C8-DL-HSL, N-3-octanoyl-DL-homoserine lactone], for which, in the assay with P. aeruginosa PAO1 [1] (setting [5]), the Doubling time is 15.0 ± 2 h and the Yield turned out to be 95 ± 4 g/mol. For the same compound, the “Yield (qualitative)” value in the assay with Pseudomonas strain PAI-A [2] (setting [6]) is listed as “+, ND^b”. Besides, at PvdQ AHL acylase, the “HSL-releasing degradation” value is “catalyzed the HSL-releasing degradation”.

In the case of `N[C@@H](CCO)C(=O)O` [homoserine], in the assay on P. aeruginosa PAO1 [1] (P. aeruginosa PAO1), the “Use as sole source of energy or nitrogen” value was “did not use” and the “Utilization as an energy source” value is “did not grow”.

`CCCCCCCCCCCC(=O)O` [Dodecanoate]: the figures for the Yield in the assay with P. aeruginosa PAO1 [1] (setting [5]) and with Pseudomonas strain PAI-A [2] (setting [6]) were 141 ± 4 g/mol and 155 ± 8.4 g/mol, respectively.

`CCCCCCCCCC(=O)O` [Decanoate]: the Yield in the assay with P. aeruginosa PAO1 [1] (setting [5]) was 130 ± 3 g/mol; in the assay on Pseudomonas strain PAI-A [2] (setting [6]), 126 ± .5 g/mol.

Consider `CCn1cc(C(=O)O)c(=O)c2ccc(C)nc21` [nalidixate], for which the “Growth in media containing the agent” value in the assay with Pseudomonas strain PAI-A [2] (PAI-A, 30 μg nalidixate·ml^−1) is “did not grow”.

Consider `CCCC(=O)NC1CCOC1=O` (racemic) [C4HSL, N-3-butanoyl-DL-homoserine lactone], for which the “Degradation of short chain AHL given as co-substrate” value is reported as “did not degrade detectable amounts” in the assay on P. aeruginosa PAO1 [1] (PAO-1, 1 mM C4HSL in 3OC12HSL-containing media) and “did not degrade detectable amounts” in the assay on Pseudomonas strain PAI-A [2] (PAI-A, 1 mM C4HSL in 3OC12HSL-containing media).

`CCCCCCCCCCCCCC(=O)NC1CCOC1=O` (racemic) [C14-DL-HSL, N-3-tetradecanoyl-DL-homoserine lactone]: in the assay with P. aeruginosa PAO1 [1] (setting [5]), the Doubling time is on record as 21.0 ± 5.3 h and the Yield was found to be 84 ± 12 g/mol. Also, the “Yield (qualitative)” value with Pseudomonas strain PAI-A [2] (setting [6]) is given as “+, ND^”. In addition, on PvdQ AHL acylase, the “HSL-releasing degradation” value is recorded as “catalyzed the HSL-releasing degradation”.

In the case of `CCCCCCCCCC(=O)CC(=O)NC(CCO)C(=O)O` (centres unmarked) [3OC12-homoserine], the “Product accumulation in PvdQ-expressing E. coli suspensions” value at PvdQ AHL acylase is reported as “No 3OC12-homoserine accumulation was observed”.

With `CCCCCCCCCC(=O)CC(=O)N[C@H]1CCOC1=O` [3OC12-L-HSL, N-3-oxododecanoyl-L-homoserine lactone], the Doubling time is 25.0 ± 3 h in the assay on P. aeruginosa PAO1 [1] (setting [5]); 264 to 600 h with P. aeruginosa PAO1 [1] (PAO1, defined ammonia-replete media, pH 5.5 and 7.2, naive cells after lag); 25.0 ± 3.5 h with Pseudomonas strain PAI-A [2] (setting [6]); 11 to 25 days with P. aeruginosa PA14. Also, the Yield was 76 ± 10 g/mol in the assay with P. aeruginosa PAO1 [1] (setting [5]) and 84 ± .2 g/mol in the assay on Pseudomonas strain PAI-A [2] (setting [6]). Further, the “HSL-releasing degradation” value on PvdQ AHL acylase was “degraded 3OC12HSL; also recorded: Within an hour, the AHL disappeared”.

With `CCCCCCCCCCCC(=O)NC1CCOC1=O` (racemic) [C12-DL-HSL, N-3-dodecanoyl-DL-homoserine lactone], the Doubling time with P. aeruginosa PAO1 [1] (setting [5]) was 14.9 ± 7.5 h; in the assay with Pseudomonas strain PAI-A [2] (setting [6]), 16.5 ± 3 h. In addition, the Yield in the assay with P. aeruginosa PAO1 [1] (setting [5]) stood at 84 ± 7 g/mol; in the assay on Pseudomonas strain PAI-A [2] (setting [6]) it was 80 ± 18 g/mol. The “HSL-releasing degradation” value on PvdQ AHL acylase was “catalyzed the HSL-releasing degradation”. Besides, the “AHL-dependent release of ninhydrin-reactive materials (HSL, homoserine) by TLC” value with Pseudomonas strain PAI-A [3] and in the assay on P. aeruginosa PAO1 [4] was “AHL-dependent release of ninhydrin-reactive materials” throughout.

`O=C(O)CCC(=O)O` [Succinate]: the Doubling time is 0.6 ± .09 h in the assay with P. aeruginosa PAO1 [1] (setting [5]), 0.583 h in the assay with Pseudomonas strain PAI-A [2] and 0.6 ± .02 h in the assay on Pseudomonas strain PAI-A [2] (pH 7.2). Besides, the Yield amounted to 43 ± 3 g/mol with P. aeruginosa PAO1 [1] (setting [5]) and 49 ± 3.8 g/mol in the assay with Pseudomonas strain PAI-A [2] (pH 7.2).

For the compound `CCCCCCCCCCCCCC(=O)O` [Tetradecanoate], the Yield in the assay on P. aeruginosa PAO1 [1] (setting [5]) amounted to 177 ± 16 g/mol; in the assay on Pseudomonas strain PAI-A [2] (setting [6]), 198 ± 3 g/mol.

As to `N[C@H]1CCOC1=O` [HSL, homoserine lactone], in the assay with P. aeruginosa PAO1 [1] (P. aeruginosa PAO1), the “Use as sole source of energy or nitrogen” value is “did not use”. The “Utilization as an energy source” value with P. aeruginosa PAO1 [1] (P. aeruginosa PAO1) was “Neither strain PAI-A nor PAO1 used; also recorded: did not grow”; in the assay with Pseudomonas strain PAI-A [2] (strain PAI-A, pH 7.2), “Neither strain PAI-A nor PAO1 used”. The “Product accumulation in PvdQ-expressing E. coli suspensions” value on PvdQ AHL acylase was “accumulation of stoichiometric amounts”.
